The text below walks through data of patent publication US20010051652A1, “Method of treating paralysis of the extremities caused by cerebral infarction” (Ajinomoto Co., Inc., priority 1999, published 2001).

In one data set the test system is CAl hippocampal neurons. The settings on record: intraperitoneally administered, especially prior to cerebral ischemia or during reperfusion; cited from earlier work.
The test system of data set [1] is male Wister rats. Kind of data set: Clockwise rotation after middle cerebral artery ischemia-reperfusion. The class given is in vivo, rat. The settings on record: for Clockwise rotation, during ischemia (rats affected/total): baseline before melatonin administration. From the text:
Eight to ten-week-old male Wister rats weighing of 250 to 300 g were used. Under halothane anesthesia, a 24 G (24 gauge) plug was inserted from a right external carotid artery of each rat so as to arrive to a starting site of its middle cerebral artery of the circle of Willis through its internal carotid artery. Immediately, the anesthesia was stopped, and the rat was dehypnotized. It was confirmed that the rat rotated clockwise, had ischemia, and had paralysis of its left upper limb. After one hour, the plug was removed from the rat under halothane anesthesia, and the blood flow was thereby reperfused. In the melatonin administration group, 1 ml of a physiological saline solution containing 6 mg/kg of melatonin was injected using a probe into the stomach of each rat each day for 10 days starting 24 hours after the reperfusion. In the control group, 1 ml of a physiological saline solution was similarly injected into each rat. After 19 days, the presence of adduction/pronation of the left upper limb and the clockwise rotation were determined for each rat. To assess the clockwise rotation, each rat was placed on a round plate 2 m in diameter for 5 minutes. If the rat had paralysis of the left upper limb, it rotated clockwise. In an experiment similar to that as described in Example 1, the adduction/pronation of the left upper limb and the clockwise rotation were determined 11 days after the ischemic incidence.

For data set [2] the following is noted: cited from earlier work.
Data set [3] concerns male Wister rats. Kind of data set: Area of the cerebral infarcted lesion. The class given is in vivo, rat. The settings on record: Example 3; rats of Example 2, after 11 days; section showing maximum lesion. How it is done: Using the rats from the experiment of Example 2, the area of the cerebral infarcted lesion in each rat after 11 days was determined. The area of the cerebral infarcted lesion was determined by preparing a consecutive section of 50 μm from a cerebral infarcted region of about 3 mm and subjecting the section showing a maximum lesion to the NIH measurement program to determine the area of the maximum lesion.

The test system of data set [4] is male Wister rats. In words: Adduction/pronation of the left upper limb after middle cerebral artery ischemia-reperfusion. The class given is in vivo, rat. The settings on record: for Adduction/pronation, during ischemia (rats affected/total): baseline before melatonin administration. An excerpt: Eight to ten-week-old male Wister rats weighing of 250 to 300 g were used. Under halothane anesthesia, a 24 G (24 gauge) plug was inserted from a right external carotid artery of each rat so as to arrive to a starting site of its middle cerebral artery of the circle of Willis through its internal carotid artery. Immediately, the anesthesia was stopped, and the rat was dehypnotized. It was confirmed that the rat rotated clockwise, had ischemia, and had paralysis of its left upper limb. After one hour, the plug was removed from the rat under halothane anesthesia, and the blood flow was thereby reperfused. In the melatonin administration group, 1 ml of a physiological saline solution containing 6 mg/kg of melatonin was injected using a probe into the stomach of each rat each day for 10 days starting 24 hours after the reperfusion. In the control group, 1 ml of a physiological saline solution was similarly injected into each rat. After 19 days, the presence of adduction/pronation of the left upper limb and the clockwise rotation were determined for each rat. To assess the adduction/pronation of the left upper limb, each rat was hung via its tail, and the movement of the left upper limb was observed. If the rat could not voluntarily move the left upper limb, and had paralysis of the left upper limb, the left upper limb was considered to show adduction/pronation. In an experiment similar to that as described in Example 1, the adduction/pronation of the left upper limb and the clockwise rotation were determined 11 days after the ischemic incidence.

[5] abbreviates: Example 1, 6 mg/kg into the stomach each day for 10 days starting 24 hours after reperfusion.
Where [6] appears, read: Example 2, experiment similar to Example 1.

Regarding `COc1ccc2[nH]cc(CCNC(C)=O)c2c1` [Melatonin, N-[2-(5-methoxy-1H-indol-3-yl)ethyl]acetamide], in the data set with CAl hippocampal neurons, the “protection of CAl hippocampal neurons against ischemic injury” value is listed as “protects CAl hippocampal neurons against ischemic injury”. The “Clockwise rotation, 19 days after ischemia (rats affected/total)” value in the data set on male Wister rats [1] (setting [5]) is recorded as 1/4. In addition, the “Clockwise rotation, during ischemia (rats affected/total)” value is given as 4/4 with male Wister rats [1] (Example 1) and 7/7 in the data set on male Wister rats [1] (Example 2). The “Clockwise rotation, 11 days after ischemia (rats affected/total)” value in the data set on male Wister rats [1] (setting [6]) was 0/7. For the same compound, the “passage into the brain” value in data set [2] (intravenously administered) was “pass into the brain”. Besides, in data set [2] (orally administered), the “passage through the blood-brain barrier” value is “passes through the blood-brain barrier”. Moreover, in the data set on male Wister rats [3], the “Area of the infarcted lesion, cerebral cortex” value stood at 5.47 mm^2. In addition, the “Area of the infarcted lesion, striatum” value in the data set on male Wister rats [3] is reported as 7.15 mm^2. In the data set on male Wister rats [4] (setting [5]), the “Adduction/pronation, 19 days after ischemia (rats affected/total)” value is 1/4. Also, the “Adduction/pronation, during ischemia (rats affected/total)” value with male Wister rats [4] (Example 1) is given as 4/4; in the data set with male Wister rats [4] (Example 2), 7/7. Besides, the “Adduction/pronation, 11 days after ischemia (rats affected/total)” value in the data set on male Wister rats [4] (setting [6]) is on record as 3/7.
